Results as given in ChEMBL document CHEMBL1148604 (J Med Chem, 2006).
Converted amounts (≈) assume the structure as drawn. The source made the active and inactive calls. The rule behind the calls is not given here.

Assays:
[1] = target: T1, 3-oxoacyl-[acyl-carrier-protein] synthase 3 (Escherichia coli) (UniProt C3TDZ2); experiment: Inhibitory activity against FabH from Escherichia coli ANSI at 100 uM
T1 sequence (whole entry): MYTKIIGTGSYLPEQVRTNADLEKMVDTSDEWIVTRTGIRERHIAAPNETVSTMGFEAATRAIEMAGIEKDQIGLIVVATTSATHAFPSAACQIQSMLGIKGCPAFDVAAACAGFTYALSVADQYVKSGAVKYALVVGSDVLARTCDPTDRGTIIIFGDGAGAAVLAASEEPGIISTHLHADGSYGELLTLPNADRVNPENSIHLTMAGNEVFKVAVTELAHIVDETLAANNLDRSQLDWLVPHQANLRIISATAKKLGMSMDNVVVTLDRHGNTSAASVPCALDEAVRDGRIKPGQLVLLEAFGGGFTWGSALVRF

[2] = target: T2, Mycobacterial beta-ketoacyl-[acyl-carrier-protein] synthase III (Mycobacterium tuberculosis) (UniProt P9WNG3); experiment: Inhibitory activity against FabH from Mycobacterium tuberculosis H37Rv at 100 uM
T2 sequence (whole entry): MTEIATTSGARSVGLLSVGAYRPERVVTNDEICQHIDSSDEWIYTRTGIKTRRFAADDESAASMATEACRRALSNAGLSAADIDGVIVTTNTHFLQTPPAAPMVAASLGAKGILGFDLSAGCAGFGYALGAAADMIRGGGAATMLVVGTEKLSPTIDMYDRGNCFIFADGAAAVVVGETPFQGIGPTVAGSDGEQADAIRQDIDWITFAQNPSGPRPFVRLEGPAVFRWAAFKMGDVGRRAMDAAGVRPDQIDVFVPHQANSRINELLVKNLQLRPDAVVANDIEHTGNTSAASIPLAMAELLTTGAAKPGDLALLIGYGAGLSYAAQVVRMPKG

[3] = target: T3, 3-oxoacyl-[acyl-carrier-protein] synthase 1 (Mycobacterium tuberculosis) (UniProt P9WQD9); experiment: Inhibitory activity against KasA from Mycobacterium tuberculosis H37Rv at 100 uM
T3 sequence (whole entry): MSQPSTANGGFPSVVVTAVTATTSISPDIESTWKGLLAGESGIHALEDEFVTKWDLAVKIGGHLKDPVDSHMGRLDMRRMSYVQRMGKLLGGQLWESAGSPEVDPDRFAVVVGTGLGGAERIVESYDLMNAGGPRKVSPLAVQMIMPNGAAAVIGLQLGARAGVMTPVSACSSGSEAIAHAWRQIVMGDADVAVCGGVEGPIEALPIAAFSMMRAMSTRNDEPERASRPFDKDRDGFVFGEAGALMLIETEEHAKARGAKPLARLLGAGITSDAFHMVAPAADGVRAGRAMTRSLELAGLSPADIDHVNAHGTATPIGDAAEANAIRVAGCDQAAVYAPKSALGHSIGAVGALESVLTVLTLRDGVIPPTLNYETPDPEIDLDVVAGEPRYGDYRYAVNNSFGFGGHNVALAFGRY

Escherichia coli = experiment: Inhibitory activity against Escherichia coli ANSI; format: functional
[4] = test system: Mycobacterium tuberculosis; experiment: Inhibitory activity against Mycobacterium tuberculosis H37Rv; format: functional
[5] = target: T4, Mycobacterial beta-ketoacyl-[acyl-carrier-protein] synthase III (Mycobacterium tuberculosis, UniProt P9WNG3); experiment: Inhibitory activity against FabH from Mycobacterium tuberculosis H37Rv
T4 sequence (P9WNG3 whole entry): T2 sequence (whole entry)

[6] = target: T5, 3-oxoacyl-[acyl-carrier-protein] synthase 2 (Mycobacterium tuberculosis) (UniProt P9WQD7); experiment: Inhibitory activity against KasB from Mycobacterium tuberculosis H37Rv at 100 uM
T5 sequence (whole entry): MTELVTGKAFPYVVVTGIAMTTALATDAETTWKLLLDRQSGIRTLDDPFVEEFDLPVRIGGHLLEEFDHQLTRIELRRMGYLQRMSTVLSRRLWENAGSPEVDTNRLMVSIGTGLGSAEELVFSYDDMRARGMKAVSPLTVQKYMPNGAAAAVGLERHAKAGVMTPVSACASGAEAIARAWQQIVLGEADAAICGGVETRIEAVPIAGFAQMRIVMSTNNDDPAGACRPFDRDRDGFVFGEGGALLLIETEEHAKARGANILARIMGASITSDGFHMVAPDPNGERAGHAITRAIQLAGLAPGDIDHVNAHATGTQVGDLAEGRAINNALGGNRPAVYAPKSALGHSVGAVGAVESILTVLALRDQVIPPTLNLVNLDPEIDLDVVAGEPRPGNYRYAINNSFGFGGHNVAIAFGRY

[7] = target: T6, 3-oxoacyl-[acyl-carrier-protein] synthase 1 (Escherichia coli K-12) (UniProt P0A953); experiment: Inhibitory activity against FabB from Escherichia coli ANSI at 100 uM
T6 sequence (whole entry): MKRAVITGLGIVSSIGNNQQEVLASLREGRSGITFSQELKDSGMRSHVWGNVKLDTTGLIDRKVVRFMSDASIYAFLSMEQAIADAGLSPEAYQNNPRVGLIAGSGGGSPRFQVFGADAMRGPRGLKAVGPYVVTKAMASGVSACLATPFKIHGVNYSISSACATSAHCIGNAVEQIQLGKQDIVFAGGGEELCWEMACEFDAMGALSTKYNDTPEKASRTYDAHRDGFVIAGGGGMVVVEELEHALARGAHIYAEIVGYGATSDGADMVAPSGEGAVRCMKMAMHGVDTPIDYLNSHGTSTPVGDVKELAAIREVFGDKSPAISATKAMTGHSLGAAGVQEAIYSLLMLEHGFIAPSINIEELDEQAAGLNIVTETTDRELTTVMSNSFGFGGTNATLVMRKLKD

[8] = target: T7, 3-oxoacyl-[acyl-carrier-protein] synthase 3 (Escherichia coli, UniProt C3TDZ2); experiment: Inhibitory activity against FabH from Escherichia coli ANSI
T7 sequence (C3TDZ2 whole entry): T1 sequence (whole entry)

[9] = target: T8, 3-oxoacyl-[acyl-carrier-protein] synthase 1 (Escherichia coli K-12, UniProt P0A953); experiment: Inhibitory activity against FabB from Escherichia coli ANSI
T8 sequence (P0A953 whole entry): T6 sequence (whole entry)

[10] = target: T9, 3-oxoacyl-[acyl-carrier-protein] synthase 2 (Mycobacterium tuberculosis, UniProt P9WQD7); experiment: Inhibitory activity against KasB from Mycobacterium tuberculosis H37Rv
T9 sequence (P9WQD7 whole entry): T5 sequence (whole entry)

wild-type apo-KasA = wild-type apo-KasA (Mycobacterium tuberculosis, UniProt P9WQD9); experiment: Inhibitory activity against KasA from Mycobacterium tuberculosis H37Rv

SMILES | inhibition [1] | inhibition [2] | inhibition [3] | MIC (Escherichia coli) [µM] | MIC [4] [µM] | IC50 [5] [µM] | inhibition [6] | inhibition [7] | IC50 [8] [µM] | IC50 [9] [µM] | IC50 [10] [µM] | IC50 (wild-type apo-KasA) [µM]
CC1=C(O)C(C)(C2CCCCC2)SC1=O (stereo not given) | inactive | < 30% | inactive | > 1000 | 1000 (≈ 226 µg/mL) | > 100 | inactive | inactive |  |  |  | 
CC1=C(O)SC(C)(CC(C)C)C1=O (stereo not given) | inactive | inactive | inactive | > 1000 | > 1000 |  | inactive | inactive |  |  |  | 
CCCCCCC1(C)SC(O)=C(C)C1=O (stereo not given) | inactive | inactive | inactive | > 1000 | 1000 (≈ 228 µg/mL) |  | inactive | inactive |  |  |  | 
CCCCCCCCCCCCC1(C)SC(O)=C(C)C1=O (stereo not given) |  |  | inactive | 25 (≈ 7.81 µg/mL) | 1000 (≈ 313 µg/mL) | 50 | inactive | inactive | 100 |  |  | 
CC1=C(O)SC(C)C1=O (stereo not given) [THIOLACTONE] | inactive | inactive | inactive | > 1000 | > 1000 |  | inactive | inactive |  |  |  | 
CC(C)=CCC/C(C)=C/CC1(C)SC(O)=C(C)C1=O (stereo not given) |  | inactive | inactive | > 1000 | > 1000 |  | inactive | inactive | 100 |  |  | 
C/C=C/CC1(C)SC(O)=C(C)C1=O (stereo not given) | inactive | inactive | inactive | > 1000 | > 1000 |  | inactive | inactive |  |  |  | 
CC1=C(O)SC(C)(C(C)C)C1=O (stereo not given) | inactive | inactive | inactive | > 1000 | > 1000 |  | inactive | inactive |  |  |  | 
CC1=C(O)C(C)(Cc2ccc(Cl)cc2Cl)SC1=O (stereo not given) | inactive | < 30% | inactive | 150 (≈ 45.5 µg/mL) | 500 (≈ 152 µg/mL) | > 100 | inactive | inactive |  |  |  | 
CC1=C(O)C(C)(Cc2ccccc2)SC1=O (stereo not given) | inactive | inactive | inactive | > 1000 | > 1000 |  | inactive | inactive |  |  |  | 
C=C(C)CC1(C)SC(O)=C(C)C1=O (stereo not given) | inactive | inactive | inactive | > 1000 | > 1000 |  | inactive | inactive |  |  |  | 
CC1=C(O)C(C)(Cc2ccc(C(F)(F)F)cc2)SC1=O (stereo not given) | inactive | < 30% | inactive | > 1000 | 1000 (≈ 302 µg/mL) | > 100 | inactive | inactive |  |  |  | 
CCC(C)C1(C)SC(O)=C(C)C1=O (stereo not given) | inactive | < 30% | inactive | > 1000 | > 1000 | > 100 | inactive | inactive |  |  |  | 
CCCCCCCCCCCCCCC1(C)SC(O)=C(C)C1=O (stereo not given) |  |  | inactive | 200 (≈ 68.1 µg/mL) | 1000 (≈ 341 µg/mL) | 80 | inactive | < 30% | 100 | > 100 |  | 
CCCCCC1(C)SC(O)=C(C)C1=O (stereo not given) | inactive | inactive | inactive | > 1000 | 500 (≈ 107 µg/mL) |  | inactive | inactive |  |  |  | 
C=CC(C)CC1(C)SC(O)=C(C)C1=O (stereo not given) | inactive | inactive | inactive | > 1000 | > 1000 |  | inactive | inactive |  |  |  | 
CCCCCCCCCCCCCC1(C)SC(O)=C(C)C1=O (stereo not given) |  |  | inactive | > 200 | 500 (≈ 163 µg/mL) | 80 | inactive | < 30% | 100 | > 100 |  | 
CC1=C(O)C(C)(C2CCCC2)SC1=O (stereo not given) | inactive | inactive | inactive | > 1000 | > 1000 |  | inactive | inactive |  |  |  | 
C=CCC1(C)SC(=O)C(C)=C1O (stereo not given) | inactive | inactive | inactive | > 1000 | > 1000 |  | inactive | inactive |  |  |  | 
CC1=C(O)C(C)(Cc2cccc(Cl)c2)SC1=O (stereo not given) |  |  |  | > 1000 | 1000 (≈ 269 µg/mL) | > 1000 |  |  | > 1000 | > 1000 | > 1000 | > 100
CCCCC(CC)CC1(C)SC(O)=C(C)C1=O (stereo not given) |  |  |  | > 1000 | 1000 (≈ 256 µg/mL) | > 1000 |  |  | > 1000 | > 1000 | > 1000 | > 1000
CCC(CC)CC1(C)SC(O)=C(C)C1=O (stereo not given) | inactive | inactive | inactive | > 1000 | 1000 (≈ 228 µg/mL) |  | inactive | inactive |  |  |  | 
CCCCCCCCCCC1(C)SC(O)=C(C)C1=O (stereo not given) |  | < 30% | inactive | 100 (≈ 28.4 µg/mL) | 500 (≈ 142 µg/mL) | > 100 | inactive | inactive | 100 |  |  | 
CC1=C(O)C(C)(C/C=C/c2ccccc2)SC1=O (stereo not given) | inactive | inactive | inactive | > 1000 | > 1000 |  | inactive | inactive |  |  |  | 
